# Patent US4746349A, “Method and compositions for suppressing the nitrification of ammonium in plant growth medium” (American Cyanamid Company, priority 1986, dated 1988)
# Counter-ions that a name gives are not always drawn.
# Legend:
# corn (Pioneer 3352) = assay: Field evaluation: yield of corn, sandy loam plots; format: in vivo; conditions: for AVERAGE YIELD 4-REPLICATES: sandy loam
# Description: (§1) Field Evaluation: Field evaluations are based on the N content of corn leaf tissue and grain yield utilizing two soil types. Replicate (4X) field plots are established at two different locations, one having (I) silt loam soil and one (II) with sandy loam soil. These soils had been previously cropped to non-fertilized corn to reduce the level of residual N. Maduramicin monoammonium salt is applied (0.25, 0.125, 0.07 ppm) with NH3 (84 or 168 kg N/ha) through a "downstream" by an injection system into silt loam plots. Nitrapyrin (0.25 ppm=0.56 kg a.i./ha), nitrogen checks, benzyl alcohol (1.16L/ha) (BA) and a O nitrogen check are included for comparison. Individual replicate plot sizes are 3.04M×22.8M (4, 76-cm corn rows×22.8M long) Anhydrous ammonia are injected on 76-cm centers.
# Plots are then planted with corn the day following treatment. Dekalb T2000 is planted 10 May on silt loam plots and Pioneer 3352 is planted 11 May in sandy loam plots.
# (§2) Corn ear leaf tissues collected at silking on silt loam plots or 60 days post silking (on silt loam and sandy loam plots) are collected from each plot and assayed for total N (AOAC procedures). Grain yields are determined by harvesting the two center rows×15.2 m of each plot.
# Nitrobacter spp. = assay: Nitrite nitrogen in ammonium amended soil incubated at 25° C.; conditions: soil 25° C., 200 ppm N
# Procedure: Determination of nitrite nitrogen and nitrate nitrogen in soil prepared in Example 1 above, which is amended with 200 ppm of nitrogen as aqueous ammonium sulfate, […], is determined using the nitrite and nitrate analysis of the American Organization of Analytical Chemists (AOAC pp. 653-655).
# [1] = test system: corn (Dekalb T2000, B73×LH 38); assay: Field evaluation: corn ear leaf tissue nitrogen, silt loam plots; format: in vivo; conditions: for Corn Leaf Tissue Analysis (total N): ear leaf at silking
# Description: as §1
# Urea, treated or non-treated with Maduramicin monoammonium salt is broadcast on the surface of sandy loam plots. Plots are then planted with corn the day following treatment. Dekalb T2000 is planted 10 May on silt loam plots and Pioneer 3352 is planted 11 May in sandy loam plots.
# as §2
# Nitrosomonos = assay: Nitrification of ammonium amended field soil incubated at 38° C. (ammonium recovery, nitrate); conditions: soil 38° C.; for Ammonium Recovery, reported as nitrogen / Nitrate, reported as nitrogen: 0.50 ppm, 200 ppm N
# Procedure: Determination of Nitrification Inhibition of Soil amended with 200 ppm of nitrogen as ammonium sulfate and 0.5 ppm of Nitrapyrin or 0.5 ppm of Maduramicin, monoammonium salt.
# Soil samples prepared as described in Example 1 above are incubated at 38° C. for 20 weeks. Samples are taken at intervals during the 20 week period, extracted with 2M KCl (10:1 v/w), and assayed for ammonium nitrite and nitrate by standard steam distillation methods.
smiles,measurement,setting,value
"CO[C@@H]1[C@@H](OC)[C@H](C)[C@@](O)(CC(=O)O)O[C@H]1[C@H](C)[C@H]1O[C@@]2(CC[C@@](C)([C@H]3CC[C@@](C)([C@@H]4O[C@@H]([C@H]5O[C@](C)(O)[C@H](C)C[C@@H]5C)C[C@@H]4O[C@@H]4C[C@H](OC)[C@@H](OC)[C@H](C)O4)O3)O2)C[C@H](O)[C@H]1C [Maduramicin monoammonium salt, Maduramicin]","Yield at the sandy loam location, in words","corn (Pioneer 3352); 0.56 kg a.i./hectare, both rates of NH3 and the lower rate of urea",significantly higher
same,AVERAGE YIELD 4-REPLICATES,"corn (Pioneer 3352); N 84 kg/ha as NH3, chemical 0.11 kg/ha",155.7 HECTOLITERS/HECTARE
same,AVERAGE YIELD 4-REPLICATES,"corn (Pioneer 3352); N 84 kg/ha as NH3, chemical 0.28 kg/ha",159.2 HECTOLITERS/HECTARE
same,AVERAGE YIELD 4-REPLICATES,"corn (Pioneer 3352); N 84 kg/ha as NH3, chemical 0.56 kg/ha",165.3 HECTOLITERS/HECTARE
same,AVERAGE YIELD 4-REPLICATES,"corn (Pioneer 3352); N 168 kg/ha as NH3, chemical 0.11 kg/ha",163.6 HECTOLITERS/HECTARE
same,AVERAGE YIELD 4-REPLICATES,"corn (Pioneer 3352); N 168 kg/ha as NH3, chemical 0.28 kg/ha",174.9 HECTOLITERS/HECTARE
same,AVERAGE YIELD 4-REPLICATES,"corn (Pioneer 3352); N 168 kg/ha as NH3, chemical 0.56 kg/ha",176.6 HECTOLITERS/HECTARE
same,Concentration of nitrite nitrogen,"Nitrobacter spp.; 0.10 ppm, week 0",6 ppm
same,Concentration of nitrite nitrogen,"Nitrobacter spp.; 0.10 ppm, week 1",17 ppm
same,Concentration of nitrite nitrogen,"Nitrobacter spp.; 0.10 ppm, week 2",2 ppm
same,Concentration of nitrite nitrogen,"Nitrobacter spp.; 0.10 ppm, week 4",3 ppm
same,Concentration of nitrite nitrogen,"Nitrobacter spp.; 0.10 ppm, week 7",12 ppm
same,Concentration of nitrite nitrogen,"Nitrobacter spp.; 0.10 ppm, week 9",49 ppm
same,Concentration of nitrite nitrogen,"Nitrobacter spp.; 0.10 ppm, week 12",9 ppm
same,Concentration of nitrite nitrogen,"Nitrobacter spp.; 0.10 ppm, week 16",14 ppm
same,Concentration of nitrite nitrogen,"Nitrobacter spp.; 0.10 ppm, week 20",56 ppm
same,Concentration of nitrite nitrogen,"Nitrobacter spp.; 0.25 ppm, week 0",7 ppm
same,Concentration of nitrite nitrogen,"Nitrobacter spp.; 0.25 ppm, week 1",2 ppm
same,Concentration of nitrite nitrogen,"Nitrobacter spp.; 0.25 ppm, week 2",7 ppm
same,Concentration of nitrite nitrogen,"Nitrobacter spp.; 0.25 ppm, week 4",0 ppm
same,Concentration of nitrite nitrogen,"Nitrobacter spp.; 0.25 ppm, week 7",-5 ppm
same,Concentration of nitrite nitrogen,"Nitrobacter spp.; 0.25 ppm, week 9",12 ppm
same,Concentration of nitrite nitrogen,"Nitrobacter spp.; 0.25 ppm, week 12",0 ppm
same,Concentration of nitrite nitrogen,"Nitrobacter spp.; 0.25 ppm, week 16",-2 ppm
same,Concentration of nitrite nitrogen,"Nitrobacter spp.; 0.25 ppm, week 20",33 ppm
same,Concentration of nitrite nitrogen,"Nitrobacter spp.; 0.50 ppm, week 0",8 ppm
same,Concentration of nitrite nitrogen,"Nitrobacter spp.; 0.50 ppm, week 1",10 ppm
same,Concentration of nitrite nitrogen,"Nitrobacter spp.; 0.50 ppm, week 2",4 ppm
same,Concentration of nitrite nitrogen,"Nitrobacter spp.; 0.50 ppm, week 4",4 ppm
same,Concentration of nitrite nitrogen,"Nitrobacter spp.; 0.50 ppm, week 7",-8 ppm
same,Concentration of nitrite nitrogen,"Nitrobacter spp.; 0.50 ppm, week 9",-4 ppm
same,Concentration of nitrite nitrogen,"Nitrobacter spp.; 0.50 ppm, week 12",4 ppm
same,Concentration of nitrite nitrogen,"Nitrobacter spp.; 0.50 ppm, week 16",-13 ppm
same,Concentration of nitrite nitrogen,"Nitrobacter spp.; 0.50 ppm, week 20",14 ppm
same,Corn Leaf Tissue Analysis (total N),"[1]; inhibitor 0.28 kg/ha, NH3 84 kg N/ha",256 10^2 ug/g
same,Corn Leaf Tissue Analysis (total N),"[1]; inhibitor 0.28 kg/ha, NH3 168 kg N/ha",275 10^2 ug/g
same,Corn Leaf Tissue Analysis (total N),"[1]; inhibitor 0.56 kg/ha, NH3 84 kg N/ha",258 10^2 ug/g
same,Corn Leaf Tissue Analysis (total N),"[1]; inhibitor 0.56 kg/ha, NH3 168 kg N/ha",281 10^2 ug/g
same,More nitrogen in leaf tissue than control plots with similar nitrogen,[1]; silt loam plots,15-25%
same,"Tissue N compared with nitrapyrin-treated plants, in words","[1]; three rates, silt loam plots",slightly higher than nitrapyrin-treated plants
same,"Activity against Nitrosomonos, in words",Nitrosomonos; 0.5 ppm,good activity
same,"Nitrification inhibition compared with nitrapyrin, in words","Nitrosomonos; 0.5 ppm, 20 weeks",slightly better than that obtained with nitrapyrin
same,"Ammonium Recovery, reported as nitrogen",Nitrosomonos; week 0,193 ppm
same,"Nitrate, reported as nitrogen",Nitrosomonos; week 0,18 ppm
same,"Ammonium Recovery, reported as nitrogen",Nitrosomonos; week 1,178 ppm
same,"Nitrate, reported as nitrogen",Nitrosomonos; week 1,20 ppm
same,"Ammonium Recovery, reported as nitrogen",Nitrosomonos; week 2,193 ppm
same,"Nitrate, reported as nitrogen",Nitrosomonos; week 2,17 ppm
same,"Ammonium Recovery, reported as nitrogen",Nitrosomonos; week 4,199 ppm
same,"Nitrate, reported as nitrogen",Nitrosomonos; week 4,9 ppm
same,"Ammonium Recovery, reported as nitrogen",Nitrosomonos; week 7,208 ppm
same,"Nitrate, reported as nitrogen",Nitrosomonos; week 7,15 ppm
same,"Ammonium Recovery, reported as nitrogen",Nitrosomonos; week 9,168 ppm
same,"Nitrate, reported as nitrogen",Nitrosomonos; week 9,52 ppm
same,"Ammonium Recovery, reported as nitrogen",Nitrosomonos; week 12,154 ppm
same,"Nitrate, reported as nitrogen",Nitrosomonos; week 12,76 ppm
same,"Ammonium Recovery, reported as nitrogen",Nitrosomonos; week 16,129 ppm
same,"Nitrate, reported as nitrogen",Nitrosomonos; week 16,112 ppm
same,"Ammonium Recovery, reported as nitrogen",Nitrosomonos; week 20,95 ppm
same,"Nitrate, reported as nitrogen",Nitrosomonos; week 20,111 ppm
